Experimental data as given in patent publication US8648076B2, “Cysteine protease inhibitors and their therapeutic applications” (Hybrigenics SA, priority 2005, dated 2014).

Experiments:
Assay type in all cases: biochemical
Cathepsin B = Cathepsin B (Homo sapiens, UniProt P07858); experiment: Cathepsin B activity assay; details: 36 μM z-RR-AMC, 3.6 nM enzyme, 30 min pre-incubation at 25° C., 60 min at 37° C.; sigmoidal fit; AF: Autofluorescent; read-out: cathepB (inhibition of cysteine protease activity)
Description: (§1) Cathepsin B was diluted in Cathepsin B buffer (20 mM Tris HCl pH 6.8; 1 mM EDTA; 1 mM DTT). Compounds stocks (100 mM) were stored at −20° C. in DMSO. […] Reactions were performed as duplicates in Black LJL 96 well plates (HE microplates; Molecular Devices; 20 μl final reaction volume). The substrate concentration for cathepsin B specificity assay was 36 μM (z-RR-AMC; Calbiochem). The concentration of the enzyme (Cathepsin B) in specificity assays was 3.6 nM. The concentrations were determined in order to perform specificity assays under initial velocities at fixed substrate concentration. Compounds were pre-incubated with enzymes for 30 minutes at 25° C. Reactions were initiated by addition of substrate to the plates containing the enzymes (+/− compounds) diluted in assay buffer. Reactions were incubated for 60 minutes at 37° C. Reactions were stopped by adding acetic acid (100 mM final). Readings were performed on a Pherastar Fluorescent Reader (BMG). δ Emission 380 nm; 6 Excitation=460 nm. Data (mean values+/− standard deviation) were analyzed as % of control (no compound) and plotted as percentage versus the Log of the compound concentration using GraphPad (Prism). Data were fitted to a sigmoidal model (variable slope).

USP8 = molecular target: T1, USP8 (Homo sapiens, UniProt P40818); experiment: USP8 activity assay; details: 400 nM Ub-AMC, pH8.8, 30 min pre-incubation at 25° C., 60 min at 37° C.; sigmoidal fit; AF: Autofluorescent; read-out: USP 8 (inhibition of cysteine protease activity)
T1 sequence (P40818 1-1118): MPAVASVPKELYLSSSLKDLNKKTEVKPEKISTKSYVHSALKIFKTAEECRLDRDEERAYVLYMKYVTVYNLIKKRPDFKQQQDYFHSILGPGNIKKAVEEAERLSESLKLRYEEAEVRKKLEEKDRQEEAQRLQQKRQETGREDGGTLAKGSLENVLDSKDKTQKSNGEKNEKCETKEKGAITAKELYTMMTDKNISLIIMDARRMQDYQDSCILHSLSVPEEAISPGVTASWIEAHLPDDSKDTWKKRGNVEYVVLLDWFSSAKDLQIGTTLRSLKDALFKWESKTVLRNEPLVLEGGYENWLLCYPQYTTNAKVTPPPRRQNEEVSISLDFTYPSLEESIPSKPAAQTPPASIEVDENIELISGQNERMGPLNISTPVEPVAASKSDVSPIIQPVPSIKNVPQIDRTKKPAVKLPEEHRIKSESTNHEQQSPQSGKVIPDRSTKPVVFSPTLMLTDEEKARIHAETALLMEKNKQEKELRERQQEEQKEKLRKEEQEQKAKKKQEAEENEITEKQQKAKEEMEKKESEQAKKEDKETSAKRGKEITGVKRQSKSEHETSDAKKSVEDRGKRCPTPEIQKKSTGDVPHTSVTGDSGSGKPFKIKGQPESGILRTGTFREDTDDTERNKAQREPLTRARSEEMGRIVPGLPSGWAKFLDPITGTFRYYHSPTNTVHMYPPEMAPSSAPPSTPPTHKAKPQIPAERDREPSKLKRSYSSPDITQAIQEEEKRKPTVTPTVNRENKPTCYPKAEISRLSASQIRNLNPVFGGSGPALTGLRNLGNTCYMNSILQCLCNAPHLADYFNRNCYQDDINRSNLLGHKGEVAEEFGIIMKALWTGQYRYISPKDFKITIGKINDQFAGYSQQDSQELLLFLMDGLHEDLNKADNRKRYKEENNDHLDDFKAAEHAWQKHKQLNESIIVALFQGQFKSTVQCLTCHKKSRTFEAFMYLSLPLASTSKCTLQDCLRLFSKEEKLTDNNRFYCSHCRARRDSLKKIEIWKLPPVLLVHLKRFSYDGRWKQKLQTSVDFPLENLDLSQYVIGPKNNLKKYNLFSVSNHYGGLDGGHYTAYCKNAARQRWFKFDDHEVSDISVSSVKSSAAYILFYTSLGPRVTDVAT

Caspase 3 = molecular target: T2, Caspase 3 (Homo sapiens, UniProt P42574); experiment: Caspase 3 activity assay; details: 500 nM Ac-DEVD-AMC, 3.2 nM enzyme, 30 min pre-incubation at 25° C., 60 min at 37° C.; sigmoidal fit; AF: Autofluorescent; read-out: Casp3 (inhibition of cysteine protease activity)
T2 sequence (P42574 29-175 limits assumed): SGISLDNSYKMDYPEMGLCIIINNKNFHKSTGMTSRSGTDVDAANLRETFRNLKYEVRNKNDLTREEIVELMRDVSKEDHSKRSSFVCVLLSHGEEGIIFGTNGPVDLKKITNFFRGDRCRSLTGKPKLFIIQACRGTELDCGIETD
T2 sequence (P42574 176-277 limits assumed): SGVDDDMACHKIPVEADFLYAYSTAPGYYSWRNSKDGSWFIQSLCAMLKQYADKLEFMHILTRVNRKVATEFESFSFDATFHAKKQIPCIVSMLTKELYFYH
Description: as §1, with “Compounds” for “Cathepsin B was diluted in Cathepsin B buffer (20 mM Tris HCl pH 6.8; 1 mM EDTA; 1 mM DTT). Compounds”, “for caspase 3” for “for cathepsin B”, “was 500 nM (Ac-DEVD-AMC; Promega). […]” for “was 36 μM (z-RR-AMC; Calbiochem). The concentration of the enzyme (Cathepsin B) in specificity assays was 3.6 nM.”, “enzymes (+/−compounds)” for “enzymes (+/− compounds)”, “nm; δ” for “nm; 6”

Row | SMILES | IC50 (Cathepsin B) [µM] | IC50 (USP8) [µM] | IC50 (Caspase 3) [µM]
1 | N#Cc1nc2sc3ccccc3c2nc1C#N [Example 19, benzo[4,5]thieno[2,3-b]pyrazine-2,3-dicarbonitrile] | > 100 | > 100 | > 100
2 | N#Cc1nc2c(nc1C#N)-c1ccccc1C2=O [Example 1, 9-oxo-9H-indeno[1,2-b]pyrazine-2,3-dicarbonitrile] | 12 | 0.29 | 0.69
3 | COc1ccc2c(c1OC)C(=O)c1nc(C#N)c(C#N)nc1-2 [Example 17d, 7,8-Dimethoxy-9-oxo-9H-indeno[1,2-b]pyrazine-2,3-dicarbonitrile] | 87 | 0.71 | 1.8
4 | N#Cc1nc2c(nc1C#N)-c1ccc(Cl)cc1C2=NOCCOc1ccccc1 [Example 27b, 7-Chloro-9-(2-phenoxy-ethoxyimino)-9H-indeno[1,2-b]pyrazine-2,3-dicarbonitrile] | > 100 | 11.3 | > 100
5 | N#Cc1nc2c(nc1N)-c1ccccc1C2=O [Example 7, 3-amino-9-oxo-9H-indeno[1,2-b]pyrazine-2-carbonitrile] | > 100 | 48 | > 100
6 | N#Cc1nc2c(nc1C#N)C1(OCCO1)c1ccccc1-2 [Example 10] | > 100 | 13 | > 100
7 | N#Cc1nc2c(nc1C#N)-c1ccccc1C2=NOCc1ccccc1 (mixture of isomers) [Example 13C, 9-Benzyloxyimino-9H-indeno[1,2-b]pyrazine-2,3-dicarbonitrile] | > 100 | 0.85 | > 100
8 | COc1ccc2c(c1)C(=O)c1nc(C#N)c(C#N)nc1-2 [Example 17i, 7-Methoxy-9-oxo-9H-indeno[1,2-b]pyrazine-2,3-dicarbonitrile] | 32 | 2.1 | 2
9 | CON=C1c2ccccc2-c2nc(C#N)c(C#N)nc21 [Example 13a, 9-(methoxyimino)-9H-indeno[1,2-b]pyrazine-2,3-dicarbonitrile] | > 100 | 0.98 | 52
10 | C=CCON=C1c2ccccc2-c2nc(C(N)=O)c(C#N)nc21 [Example 34a, 9-Allyloxyimino-2-cyano-9H-indeno[1,2-b]pyrazine-3-carboxylic acid amide] | 3.5 | 0.058 | 0.245
11 | CCc1ccc2c(c1)-c1nc(C#N)c(C#N)nc1C2=O [Example 32, 6-ethyl-9-oxo-9H-indeno[1,2-b]pyrazine-2,3-dicarbonitrile] | 69 | 0.111 | 3.6
12 | Cc1cccc2c1C(=O)c1nc(C#N)c(C#N)nc1-2 [Example 17c, 8-Methyl-9-oxo-9H-indeno[1,2-b]pyrazine-2,3-dicarbonitrile] | > 100 | 3.1 | 13
13 | N#Cc1nc2c(nc1C#N)-c1ccc(O)cc1C2=O [Example 17j, 7-Hydroxy-9-oxo-9H-indeno[1,2-b]pyrazine-2,3-dicarbonitrile] | 40 | > 100 | 47
14 | N#Cc1nc2c(nc1C#N)-c1ccc(F)cc1C2=O [Example 17h, 7-Fluoro-9-oxo-9H-indeno[1,2-b]pyrazine-2,3-dicarbonitrile] | 6 | 0.25 | 1
15 | CCSc1nc2c(nc1C#N)C(=O)c1ccccc1-2 [Example 23, 3-ethylsulfanyl-9-oxo-9H-indeno[1,2-b]pyrazine-2-carbonitrile] | > 100 | 46 | > 100
16 | N#Cc1nc2c(nc1C#N)-c1ccccc1/C2=N/Oc1ccccc1 [Example 13e, 9-Phenoxyimino-9H-indeno[1,2-b]pyrazine-2,3-dicarbonitrile] | > 100 | 0.24 | > 100
17 | N#Cc1nc2c(nc1C#N)-c1ccccc1C2=Nc1ccccc1 (mixture of isomers) [Example 14, 9-[phenylimino]-9H-indeno[1,2-b]pyrazine-2,3-dicarbonitrile] | 74 | 0.35 | 1.3
18 | CON=C1c2ccccc2-c2nc(C(N)=O)c(C#N)nc21 [Example 34d, 2-Cyano-9-methoxyimino-9H-indeno[1,2-b]pyrazine-3-carboxylic acid amide] | 1.11 | 0.029 | 0.131
19 | CN(C)c1nc2c(nc1C#N)C(=O)c1ccccc1-2 [Example 4, 3-dimethylamino-9-oxo-9H-indeno[1,2-b]pyrazine-2-carbonitrile] | > 100 | > 100 | > 100
20 | COCCOc1nc2c(nc1C#N)C(=O)c1ccccc1-2 [Example 5, 3-(2-methoxy-ethoxy)-9-oxo-9H-indeno[1,2-b]pyrazine-2-carbonitrile] | > 100 | 53 | > 100
21 | COCCON=C1c2ccccc2-c2nc(C(N)=O)c(C#N)nc21 [Example 34c, 2-Cyano-9-(2-methoxy-ethoxyimino)-9H-indeno[1,2-b]pyrazine-3-carboxylic acid amide] | > 100 | 0.071 | 1.22
22 | CCON=C1c2ccccc2-c2nc(C(N)=O)c(C#N)nc21 [Example 34b, 2-Cyano-9-ethoxyimino-9H-indeno[1,2-b]pyrazine-3-carboxylic acid amide] | > 100 | 0.063 | 0.624
23 | N#CNc1nc2c(nc1C#N)C(=O)c1ccccc1-2 [Example 21, 2-cyano-9-oxo-9H-indeno[1,2-b]pyrazin-3-yl-cyanamide] | > 100 | > 100 | > 100
24 | COc1ccc(OC)c2c1C(=O)c1nc(C#N)c(C#N)nc1-2 [Example 17f, 5,8-Dimethoxy-9-oxo-9H-indeno[1,2-b]pyrazine-2,3-dicarbonitrile] | 52.6 | 0.81 | 2
25 | N#Cc1nc2c(nc1C#N)-c1ccccc1C2=NO [Example 12, 9-[hydroxyimino]-9H-indeno[1,2-b]pyrazine-2,3-dicarbonitrile] | 21 | 7 | 5.6
